Measurements published in article PMC9889269, “Synthetic anaplerotic modules for the direct synthesis of complex molecules from CO2” (Nature Chemical Biology, 2022).

Biological target: T1, Aat (acetyl-CoA acetyltransferase) (Cupriavidus necator, UniProt P14611)
T1 construct: gene phaA; recombinant from E. coli BL21(DE3), Ni-NTA purified, desalted
T1 sequence (P14611 1-393): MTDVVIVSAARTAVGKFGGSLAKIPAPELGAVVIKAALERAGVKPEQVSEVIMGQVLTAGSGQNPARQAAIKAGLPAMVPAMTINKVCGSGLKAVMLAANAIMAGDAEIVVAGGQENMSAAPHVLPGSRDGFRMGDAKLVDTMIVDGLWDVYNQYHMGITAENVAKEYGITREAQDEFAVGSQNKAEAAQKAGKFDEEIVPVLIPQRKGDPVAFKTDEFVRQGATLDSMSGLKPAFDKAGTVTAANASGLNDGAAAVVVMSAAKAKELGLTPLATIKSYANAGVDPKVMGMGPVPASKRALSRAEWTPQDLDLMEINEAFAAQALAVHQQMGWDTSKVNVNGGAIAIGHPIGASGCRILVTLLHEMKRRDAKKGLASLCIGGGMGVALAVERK
Assay: LC-MS of condensation products, with Aar and Bbd
Type: biochemical
Details: acetyl-CoA and propionyl-CoA together

SMILES | LC-MS of condensation products, with Aar and Bbd | LC-MS of condensation products, with Aar and Bbd (condensed with acetyl-CoA, not with itself)
CC(=O)SCCNC(=O)CCNC(=O)[C@H](O)C(C)(C)COP(=O)(O)OP(=O)(O)OC[C@H]1O[C@@H](n2cnc3c(N)ncnc32)[C@H](O)[C@@H]1OP(=O)(O)O [acetyl-CoA] | Promiscuity of Aat assayed with acetyl-CoA and propionyl-CoA | 
CCC(=O)SCCNC(=O)CCNC(=O)[C@H](O)C(C)(C)COP(=O)(O)OP(=O)(O)OC[C@H]1O[C@@H](n2cnc3c(N)ncnc32)[C@H](O)[C@@H]1OP(=O)(O)O [propionyl-CoA] |  | All products for acetyl- and propionyl-CoA combinations were detectable
